# According to US9862711B2, “Pyrazine derivatives as phosphatidylinositol 3-kinase inhibitors” (NOVARTIS AG, priority 2014, dated 2018):
# Target: PI 3-kinase delta (Homo sapiens (Human), UniProt O00329)
# Assay: TR-FRET Adapta assay (Assay F)
# Format: biochemical
# Conditions: read-out: Assay F PI3Kδ IC50
# Excerpt: TR-FRET Adapta Assay for PI 3-Kinase Gamma (E), PI 3-Kinase Delta (F)
# The TR-FRET Adapta™ Universal Kinase Assay Kit was purchased from Invitrogen Corporation (Carlsbad/CA, USA) (Cat. No. PV5099). The kit contains the following reagents: Adapta Eu-anti-ADP Antibody (Europium labeled anti-ADP antibody in HEPES buffered saline, Cat. No. PV5097), Alexa Fluor® 647-labeled ADP tracer (Alexa Fluor® 647-labeled ADP tracer in HEPES buffered saline, Cat. No. PV5098), TR-FRET dilution buffer pH 7.5 (Cat. No. PV3574). PIK3CD substrate phosphatidylinositol (PI) was obtained from Invitrogen (vesicules consisting of 2 mM phosphatidylinositol (PI) in 50 mM HEPES pH7.5; Cat. No. PV5371). PIK3CG substrate phosphatidylinositol-4,5-bisphosphate (PIP(4,5)2 was obtained from Invitrogen (PIP2:PS large unilamellar vesicules consisting of 1 mM PIP2: 19 mM PS in 50 mM HEPES pH7.5, 3 mM MgCl2, 1 mM EGTA; Cat. No. PV5100).
# Time-Resolved Fluorescence Resonance Energy Transfer (TR-FRET) is a technology based on energy transfer between two adjacent dyes, from an excited electron in one dye (the donor) to an electron of an adjacent dye (the acceptor) through resonance, then released as a photon. This energy transfer is detected by an increase in the fluorescence emission of the acceptor, and a decrease in the fluorescence emission of the donor. TR-FRET assays for protein kinases use a long-lifetime lanthanide Terbium or Europium chelates as the donor species which overcome interference from compound autofluorescence or light scatter from precipitated compounds, by introducing a delay after excitation by a flashlamp excitation source. Results are often expressed as a ratio of the intensities of the acceptor and donor fluorophores. The ratiometric nature of such a value corrects for differences in assay volumes between wells, as well as corrects for quenching effects due to colored compounds. The Adapta™ assay can be divided into two phases: a kinase reaction phase and an ADP detection phase. In the kinase reaction phase, all kinase reaction components are added to the well and the reaction is allowed to incubate for a set period of time specific for each kinase. After the reaction, a detection solution of Eu-labeled anti-ADP antibody, Alexa Fluor® 647-labeled ADP tracer, and EDTA (to stop the kinase reaction) are added to the assay well. ADP formed by the kinase reaction will displace the Alexa Fluor® 647-labeled ADP tracer from the antibody, resulting in a decrease in TR-FRET signal. In the presence of an inhibitor, the amount of ADP formed by the kinase reaction is reduced, and the resulting intact antibodytracer interaction maintains a high TR-FRET signal. In the Adapta™ assay, the donor (Europium-anti-ADP antibody) is excited at 340 nm and will transfer its energy to the acceptor (Alexa Fluor® 647-labeled ADP tracer). The emission from the Alexa Fluor® 647 can be monitored with a filter centered at 665 nm because it is located between the emission peaks of the donor, which is measured at 615/620 nm. 50 nL of compound dilutions were dispensed onto white 384-well small volume polystyrene plate. Then 5 μL of either PI 3-kinase gamma or PI 3-kinase delta and lipid substrate (P1 or PIP2:PS) followed by 5 μL of ATP (final assay volume 10 μL) are incubated at RT. The standard reaction buffer for the Adapta™ TR-FRET assay contained 10 mM Tris-HCl pH 7.5, 3 mM MgCl2, 50 mM NaCl, 1 mM DTT, 0.05% CHAPS ((3-[(3-cholamidopropyl)dimethylammonio]-1-propanesulfonate). Reactions were stopped with 5 μL of a mixture of EDTA containing the Eu-labeled anti-ADP antibody and the Alexa Fluor® 647-labeled ADP tracer in TR-FRET dilution buffer. Plates are read 15 to 60 mins later in a Synergy2 reader using an integration time of 0.4 seconds and a delay of 0.05 seconds. Control for the 100% inhibition of the kinase reaction was performed by replacing the PI 3-kinase by the standard reaction buffer. […]
# Chain of PI 3-kinase delta (O00329 2-1044): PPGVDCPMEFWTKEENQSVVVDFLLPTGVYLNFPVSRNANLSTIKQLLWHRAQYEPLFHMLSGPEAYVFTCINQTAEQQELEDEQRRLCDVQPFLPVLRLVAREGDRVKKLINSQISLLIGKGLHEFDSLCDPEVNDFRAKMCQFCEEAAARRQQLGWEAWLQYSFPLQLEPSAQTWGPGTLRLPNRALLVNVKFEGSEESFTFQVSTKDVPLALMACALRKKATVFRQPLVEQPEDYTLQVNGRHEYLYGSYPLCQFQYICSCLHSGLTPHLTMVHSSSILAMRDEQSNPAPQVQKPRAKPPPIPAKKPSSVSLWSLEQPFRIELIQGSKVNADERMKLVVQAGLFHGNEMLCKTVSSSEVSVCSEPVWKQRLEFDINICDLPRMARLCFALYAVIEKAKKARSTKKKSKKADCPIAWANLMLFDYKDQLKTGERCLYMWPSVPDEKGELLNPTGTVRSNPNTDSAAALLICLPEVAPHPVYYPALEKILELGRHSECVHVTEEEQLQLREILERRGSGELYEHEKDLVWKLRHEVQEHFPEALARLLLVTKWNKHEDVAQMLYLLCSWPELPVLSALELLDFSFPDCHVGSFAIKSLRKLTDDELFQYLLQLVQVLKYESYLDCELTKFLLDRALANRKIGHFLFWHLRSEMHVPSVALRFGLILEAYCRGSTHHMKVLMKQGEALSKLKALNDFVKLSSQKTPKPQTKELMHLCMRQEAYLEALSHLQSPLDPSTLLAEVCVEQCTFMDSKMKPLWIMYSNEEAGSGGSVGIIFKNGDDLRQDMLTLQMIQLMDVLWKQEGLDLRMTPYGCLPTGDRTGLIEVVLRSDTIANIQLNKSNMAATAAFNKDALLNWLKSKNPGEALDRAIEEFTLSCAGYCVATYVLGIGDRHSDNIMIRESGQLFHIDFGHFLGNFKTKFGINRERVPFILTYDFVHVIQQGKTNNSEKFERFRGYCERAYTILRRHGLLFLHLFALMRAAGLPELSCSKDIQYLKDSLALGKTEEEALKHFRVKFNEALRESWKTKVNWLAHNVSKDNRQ
row,Structure (SMILES),IC50
1,"Cc1ccc(S(=O)(=O)NCCC(C)(C)O)cc1-c1cncc(-c2cn(CCN3CCOCC3)nc2C)n1 [Example 10, N-(3-Hydroxy-3-methyl-butyl)-4-methyl-3-{6-[3-methyl-1-(2-morpholin-4-yl-ethyl)-1H-pyrazol-4-yl]-pyrazin-2-yl}-benzenesulfonamide]",20 nM
2,"Cc1ccc(S(=O)(=O)NCC(C)(C)O)cc1-c1cncc(-c2cn(C)nc2C)n1 [Example 2, 3-[6-(1,3-Dimethyl-1H-pyrazol-4-yl)-pyrazin-2-yl]-N-(2-hydroxy-2-methyl-propyl)-4-methyl-benzenesulfonamide]",60 nM
3,"Cc1ncc(-c2cncc(-c3cc(S(=O)(=O)NCCCO)ccc3C)n2)s1 [Example 1, N-(3-Hydroxy-propyl)-4-methyl-3-[6-(2-methyl-thiazol-5-yl)-pyrazin-2-yl]-benzenesulfonamide]",200 nM
4,"Cc1ccc(S(=O)(=O)NCC2(C)COC2)cc1-c1cncc(-c2cn(C)nc2C)n1 [Example 4, Trans 3-[6-(1,3-Dimethyl-1H-pyrazol-4-yl)-pyrazin-2-yl]-4-methyl-N-(3-methyl-oxetan-3-ylmethyl)-benzenesulfonamide]",70 nM
5,"Cc1ccc(S(=O)(=O)NCCC(C)(C)O)cc1-c1cncc(-c2cnn(CCN3CCOCC3)c2)n1 [Example 9, N-(3-Hydroxy-3-methyl-butyl)-4-methyl-3-{6-[1-(2-morpholin-4-yl-ethyl)-1H-pyrazol-4-yl]-pyrazin-2-yl}-benzenesulfonamide]",10 nM
6,"Cc1ccc(S(=O)(=O)NCC(C)(C)CO)cc1-c1cncc(-c2cn(C)nc2C)n1 [Example 8, 3-[6-(1,3-Dimethyl-1H-pyrazol-4-yl)-pyrazin-2-yl]-N-(3-hydroxy-2,2-dimethyl-propyl)-4-methyl-benzenesulfonamide]",70 nM
7,"Cc1ncc(-c2cncc(-c3cc(S(=O)(=O)N[C@H]4CC[C@H](O)CC4)ccc3C)n2)s1 [Example 5, Trans N-(4-Hydroxycyclohexyl)-4-methyl-3-(6-(2-methylthiazol-5-yl)pyrazin-2-yl)benzenesulfonamide]",90 nM
8,"Cc1ccc(S(=O)(=O)N[C@H]2CC[C@H](O)CC2)cc1-c1cncc(-c2cccnc2)n1 [Example 11, Trans N-(4-Hydroxy-cyclohexyl)-4-methyl-3-(6-pyridin-3-yl-pyrazin-2-yl)-benzenesulfonamide]",120 nM
9,"Cc1ccc(S(=O)(=O)NCCC(C)(C)O)cc1-c1cncc(-c2cn(C)nc2C)n1 [Example 3, 3-[6-(1,3-Dimethyl-1H-pyrazol-4-yl)-pyrazin-2-yl]-N-(3-hydroxy-3-methyl-butyl)-4-methyl-benzenesulfonamide]",70 nM
